{"source": "patent US20140271866A1", "about": "“TRANSDERMAL DRUG DELIVERY SYSTEM CONTAINING RIVASTIGMINE” (priority 2013, published 2014)", "origin": "cited, not measured here", "conditions": "in vivo", "data": [{"smiles": "CCN(C)C(=O)Oc1cccc([C@H](C)N(C)C)c1", "note": "[Rivastigmine, rivastigmine]", "values": [{"measurement": "half-life", "value": "about 1.5 hours"}]}]}
